Reference: patent publication US4604239A, “Antibiotics” (Eli Lilly and Company, priority 1985, dated 1986)
Where two headings read alike, the source gives them in different places.

Tests used:
S. pneumoniae = assay: experimental bacterial infection in mice; type: in vivo; details: two doses subcutaneously
Method: All of the A41030 factors tested have shown in vivo antimicrobial activity against experimental bacterial infections. When two doses of test compound were administered subcutaneously to mice in illustrative infections, the activity observed is measured as an ED50 value [effective dose in mg./kg. to protect fifty percent of the test animals: See Warren Wick, et al., J. Bacteriol. 81, 233-235 (1961)].

[1] = test system: Staphylococcus epidermidis; assay: agar-dilution MIC; type: cell-based; details: Staphylococcus epidermidis EPI1; Table 17
From the text: (§1) The agar-dilution procedure described by the International Collaborative study (ICS) group was used to determine the minimum inhibitory concentrations (MIC's).

Bacteroides fragilis = assay: agar-dilution MIC; type: cell-based
From the text: as §1

Clostridium difficile = type: cell-based
Hemophilus influenzae = assay: agar-dilution MIC; type: cell-based; details: Table 17

Substance: A41030 factor C
- ED50 (S. pneumoniae): 6.7 mg/kg
- MIC [1]: 0.5 µg/mL
- MIC (Bacteroides fragilis; B. fragilis 2, 24-hour, Table 12): 32 µg/mL
- MIC (Bacteroides fragilis; B. fragilis 9, 24-hour, Table 12): 32 µg/mL
- MIC (Bacteroides fragilis; B. fragilis 103, 24-hour, Table 12): 32 µg/mL
- MIC (Bacteroides fragilis; B. fragilis 104, 24-hour, Table 12): 32 µg/mL
- MIC (Bacteroides fragilis; B. fragilis 106, 24-hour, Table 12): 32 µg/mL
- MIC (Bacteroides fragilis; B. fragilis 107, 24-hour, Table 12): 32 µg/mL
- MIC (Bacteroides fragilis; B. fragilis 108, 24-hour, Table 12): 64 µg/mL
- MIC (Bacteroides fragilis; B. fragilis 110, 24-hour, Table 12): 64 µg/mL
- MIC (Bacteroides fragilis; B. fragilis 111, 24-hour, Table 12): 32 µg/mL
- MIC (Bacteroides fragilis; B. fragilis 112, 24-hour, Table 12): 32 µg/mL
- MIC (Bacteroides fragilis; B. fragilis 113, 24-hour, Table 12): 32 µg/mL
- MIC (Bacteroides fragilis; B. fragilis 1451, 24-hour, Table 12): 64 µg/mL
- MIC (Bacteroides fragilis; B. fragilis 1470, 24-hour, Table 12): 64 µg/mL
- MIC (Bacteroides fragilis; B. fragilis 1877, 24-hour, Table 12): 32 µg/mL
- MIC (Bacteroides fragilis; B. fragilis 9032, 24-hour, Table 12): 32 µg/mL
- MIC (Bacteroides fragilis; Bacteroides fragilis 1877, Table 14): 16 µg/mL
- MIC (Bacteroides fragilis; Bacteroides fragilis 1936B, Table 14): 32 µg/mL
- MIC (Clostridium difficile; Clostridium difficile 78, Table 16): 1.0 µg/mL
- MIC (Clostridium difficile; Clostridium difficile 107B, Table 16): 1.0 µg/mL
- MIC (Clostridium difficile; Clostridium difficile 111F, Table 16): 2 µg/mL
- MIC (Clostridium difficile; Clostridium difficile 1153, Table 16): 2 µg/mL
- MIC (Clostridium difficile; Clostridium difficile 2634, Table 16): 2 µg/mL
- MIC (Clostridium difficile; Clostridium difficile 2994, Table 14): 16 µg/mL
- MIC (Clostridium difficile; Clostridium difficile 3424-5B, Table 16): 1.0 µg/mL
- MIC (Clostridium difficile; Clostridium difficile 3816, Table 16): 2 µg/mL
- MIC (Clostridium difficile; Clostridium difficile 3950D, Table 16): 2 µg/mL
- MIC (Clostridium difficile; Clostridium difficile 6890, Table 16): 2 µg/mL
- MIC (Clostridium difficile; Clostridium difficile 8484, Table 16): 1.0 µg/mL
- MIC (Clostridium difficile; Clostridium difficile A-194, Table 16): 2 µg/mL
- MIC (Clostridium difficile; Clostridium difficile A-195, Table 16): 1.0 µg/mL
- MIC (Clostridium difficile; Clostridium difficile A-196, Table 16): 2 µg/mL
- MIC (Clostridium difficile; Clostridium difficile A-279, Table 16): 2 µg/mL
- MIC (Clostridium difficile; Clostridium difficile A-280, Table 16): 1.0 µg/mL
- MIC (Clostridium difficile; Clostridium difficile A-281, Table 16): 2 µg/mL
- MIC (Clostridium difficile; Clostridium difficile WAL-2112, Table 16): 2 µg/mL
- MIC (Clostridium difficile; Clostridium difficile WAL-3657, Table 16): 2 µg/mL
- MIC (Clostridium difficile; Clostridium difficile WAL-4268, Table 16): 1.0 µg/mL
- MIC (Hemophilus influenzae; Haemophilus influenzae 251): 4 µg/mL
- MIC (Hemophilus influenzae; Haemophilus influenzae Brun): 16 µg/mL
